# Test results as given in ChEMBL document CHEMBL1134265, “2-Aryl indole NK1 receptor antagonists: optimisation of the 2-aryl ring and the indole nitrogen substituent” (Bioorg Med Chem Lett, 2001).
# Tests used:
# Substance-P receptor [1] = biological target: T1, Substance-P receptor (Homo sapiens, UniProt P25103); test: Concentration required for displacement of [125I]-labeled substance P from cloned hNK1 receptor expressed in CHO cells(*).; type: cell-based
# Gerbillinae [2] = test: In vivo percent inhibition of gerbil foot-tapping after 3 mg/kg, iv administration prior to icv infusion of GR-73632 in vehicle-treated animals; type: functional
# Gerbillinae [3] = test: In vivo inhibitory dose against gerbil foot-tapping after iv administration prior to icv infusion of GR-73632 in vehicle-treated animals; type: functional; details: read-out: ID50 (the source's name)
# Substance-P receptor [4] = biological target: T1, Substance-P receptor; test: Tested for displacement of [125I]-labeled substance P from cloned hNK1 receptor expressed in CHO cells (*); type: cell-based; details: concentration not given here
# Substance-P receptor [5] = biological target: T1, Substance-P receptor; test: Tested for displacement of [125I]-labeled substance P from cloned hNK1 receptor expressed in CHO cells at 100 nM; type: cell-based
# Gerbillinae [6] = test: In vivo inhibitory dose against gerbil foot-tapping after iv administration prior to icv infusion of GR-73632 for a duration of 5 min in vehicle-treated animals; type: functional; details: read-out: ID50 (the source's name)
# T1 sequence (P25103 whole entry, the tested form may be a part): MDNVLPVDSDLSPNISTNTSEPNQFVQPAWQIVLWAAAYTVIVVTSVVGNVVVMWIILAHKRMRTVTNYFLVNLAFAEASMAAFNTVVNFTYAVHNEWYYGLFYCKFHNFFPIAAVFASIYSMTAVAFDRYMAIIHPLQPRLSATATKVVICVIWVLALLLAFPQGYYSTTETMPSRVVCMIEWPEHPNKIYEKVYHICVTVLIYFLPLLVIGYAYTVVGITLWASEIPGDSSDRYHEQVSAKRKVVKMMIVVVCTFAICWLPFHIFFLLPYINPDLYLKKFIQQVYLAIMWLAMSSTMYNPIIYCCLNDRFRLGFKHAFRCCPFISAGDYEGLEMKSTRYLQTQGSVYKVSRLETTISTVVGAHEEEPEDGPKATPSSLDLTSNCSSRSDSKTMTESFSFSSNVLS
IC50 (Substance-P receptor [1]),Structure (SMILES),further results
5.2 nM,COc1ccccc1N1CCN(C(=O)CCc2c(-c3ccc(Cl)cc3)n(C(C)C)c3ccc(Cl)cc23)CC1,–
0.28 nM,COc1ccccc1N1CCN(C(=O)CCc2c(-c3ccc(Cl)cc3)n(C)c3ccc(Cl)cc23)CC1,–
0.92 nM,Cn1c(-c2cccnc2)c(CCC(=O)N2CCC(O)(Cc3ccccc3)CC2)c2cc(Cl)ccc21,–
–,COc1ccccc1N1CCN(C(=O)CCc2c(-c3ccc(Br)cc3)[nH]c3ccc(C)cc23)CC1,inhibition in vivo at 3 mg/kg (Gerbillinae [2]): 46%
1.5 nM,COc1ccc(-c2[nH]c3ccc(C)cc3c2CCC(=O)N2CCN(c3ccccc3OC)CC2)cc1,–
96 nM,COc1ccccc1N1CCN(C(=O)CCc2c(-c3ccc(Cl)cc3)n(Cc3ccccc3)c3ccc(Cl)cc23)CC1,–
89 nM,COc1ccccc1N1CCN(C(=O)CCc2c(-c3ccccc3Br)[nH]c3ccc(C)cc23)CC1,–
0.12 nM,Cc1ccc(-c2c(CCC(=O)N3CCC(O)(Cc4ccccc4)CC3)c3cc(Cl)ccc3n2C)cn1,ED50 (Gerbillinae [3]): 0.68 mg/kg
0.97 nM,COc1ccccc1N1CCN(C(=O)CCc2c(-c3ccc(Cl)cc3)n(CCO)c3ccc(Cl)cc23)CC1,–
0.33 nM,COc1ccccc1N1CCN(C(=O)CCc2c(-c3ccc(C(C)C)cc3)n(C)c3ccc(C)cc23)CC1,inhibition in vivo at 3 mg/kg (Gerbillinae [2]): 100%
82 nM,COc1ccccc1-c1[nH]c2ccc(C)cc2c1CCC(=O)N1CCN(c2ccccc2OC)CC1,–
0.12 nM,Cn1c(-c2ccc(C(F)(F)F)cn2)c(CCC(=O)N2CCC(O)(Cc3ccccc3)CC2)c2cc(Cl)ccc21,ED50 (Gerbillinae [3]): 0.1 mg/kg
0.14 nM,COc1ccccc1N1CCN(C(=O)CCc2c(-c3ccc(C(F)(F)F)cc3)n(C)c3ccc(C)cc23)CC1,inhibition in vivo at 3 mg/kg (Gerbillinae [2]): 93%
0.2 nM,COc1ccccc1N1CCN(C(=O)CCc2c(-c3ccc(C(C)C)cc3)[nH]c3ccc(C)cc23)CC1,inhibition in vivo at 3 mg/kg (Gerbillinae [2]): 100%
–,COc1ccccc1N1CCN(C(=O)CCc2c(-c3ccncc3)[nH]c3ccc(C)cc23)CC1,inhibition (Substance-P receptor [4]): 58%
0.44 nM,COc1ccccc1N1CCN(C(=O)CCc2c(-c3ccc(C(F)(F)F)cc3)[nH]c3ccc(C)cc23)CC1,–
8 nM,COc1cccc(-c2[nH]c3ccc(C)cc3c2CCC(=O)N2CCN(c3ccccc3OC)CC2)c1,–
–,COc1ccccc1N1CCN(C(=O)CCc2c[nH]c3ccc(C)cc23)CC1,inhibition (Substance-P receptor [4]): 18%
15 nM,COC(=O)Cn1c(-c2ccc(Cl)cc2)c(CCC(=O)N2CCN(c3ccccc3OC)CC2)c2cc(Cl)ccc21,–
–,COc1ccccc1N1CCN(C(=O)CCc2c(-c3ccc(Cl)cc3)[nH]c3ccc(C)cc23)CC1,inhibition in vivo at 3 mg/kg (Gerbillinae [2]): 22%
6.1 nM,COc1ccccc1N1CCN(C(=O)CCc2c(-c3ccccc3)[nH]c3ccc(C)cc23)CC1,–
0.11 nM,COc1ccccc1N1CCN(C(=O)CCc2c(-c3ccc(Cl)cc3)n(C)c3ccc(C)cc23)CC1,inhibition in vivo at 3 mg/kg (Gerbillinae [2]): 100%
–,COc1ccccc1N1CCN(C(=O)CCc2c3n(c4ccc(C)cc24)Cc2ccccc2-3)CC1,inhibition (Substance-P receptor [5]): 55%
0.14 nM,COc1ccccc1N1CCN(C(=O)CCc2c(-c3ccc(Br)cc3)n(C)c3ccc(C)cc23)CC1,ED50 (Gerbillinae [6]): 0.5 mg/kg; inhibition in vivo at 3 mg/kg (Gerbillinae [2]): 100%
6.3 nM,COc1ccccc1N1CCN(C(=O)CCc2c(-c3ccc(C(C)(C)C)cc3)[nH]c3ccc(C)cc23)CC1,–
103 nM,COc1ccccc1N1CCN(C(=O)CCc2c(-c3ccc(Cl)cc3)n(CC3CC3)c3ccc(Cl)cc23)CC1,–
7.6 nM,COc1ccccc1N1CCN(C(=O)CCc2c(-c3ccc(-c4ccccc4)cc3)[nH]c3ccc(C)cc23)CC1,–
–,COc1ccccc1N1CCN(C(=O)CCc2c(-c3cccc(Br)c3)[nH]c3ccc(C)cc23)CC1,inhibition (Substance-P receptor [4]): 37%
2.9 nM,Cn1c(-c2ccccn2)c(CCC(=O)N2CCC(O)(Cc3ccccc3)CC2)c2cc(Cl)ccc21,–
